Test results as given in ChEMBL document CHEMBL5316379, “Potent and Selective BCL-XL Inhibitors and PROTAC Compounds as Potential Cancer Treatment and Immunotherapy” (ACS Med Chem Lett, 2023).

Tests used:
[1] = molecular target: von Hippel-Lindau disease tumor suppressor/Bcl-2-like protein 1 (Homo sapiens, UniProt P40337+Q07817); assay: Protac activity at VHL/BCL-xl in human NCI-H1650 cells assessed as induction of BCL-xl degradation by Nano-Glo HiBiT assay; type: cell-based
EBC-1 = assay: Growth inhibition of human EBC-1 cells assessed as cell viability incubated for 5 days by CellTiter-Glo assay; type: functional; conditions: EBC-1, 120 h, time 5 day

von Hippel-Lindau disease tumor suppressor/Bcl-2-like protein 1, sequence (Q07817 whole entry): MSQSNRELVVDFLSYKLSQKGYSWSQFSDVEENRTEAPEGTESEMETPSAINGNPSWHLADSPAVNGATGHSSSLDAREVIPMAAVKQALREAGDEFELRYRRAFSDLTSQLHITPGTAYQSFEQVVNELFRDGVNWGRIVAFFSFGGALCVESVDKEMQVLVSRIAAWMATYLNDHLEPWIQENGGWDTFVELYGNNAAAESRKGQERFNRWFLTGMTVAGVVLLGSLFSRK
von Hippel-Lindau disease tumor suppressor/Bcl-2-like protein 1, sequence (P40337 whole entry): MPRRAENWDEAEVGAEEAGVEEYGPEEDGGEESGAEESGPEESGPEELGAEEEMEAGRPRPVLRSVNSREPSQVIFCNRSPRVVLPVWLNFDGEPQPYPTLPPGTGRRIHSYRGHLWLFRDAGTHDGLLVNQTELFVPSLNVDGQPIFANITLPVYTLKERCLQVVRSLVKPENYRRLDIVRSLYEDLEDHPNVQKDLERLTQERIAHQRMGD

Row | Structure (SMILES) | EC50 [1] [nM] | GI50 (EBC-1) [nM]
1 | Cc1ncsc1-c1ccc([C@H](C)NC(=O)[C@@H]2C[C@@H](O)CN2C(=O)[C@@H](NC(=O)CCCCCCCCCCCCCCCN(C)CCOC23C[C@@]4(C)C[C@@](C)(C2)C[C@@](Cn2ncc(-c5ccc(N6CCCc7c6nnc(Nc6nc8ccccc8s6)c7C)nc5C(=O)O)c2C)(C3)C4)C(C)(C)C)cc1 | 1 | 5
2 | Cc1ncsc1-c1ccc([C@H](C)NC(=O)[C@@H]2C[C@@H](O)CN2C(=O)[C@@H](NC(=O)CCCCCCCCCCCCCN(C)CCOC23C[C@@]4(C)C[C@@](C)(C2)C[C@@](Cn2ncc(-c5ccc(N6CCCc7c6nnc(Nc6nc8ccccc8s6)c7C)nc5C(=O)O)c2C)(C3)C4)C(C)(C)C)cc1 |  | 1
3 | Cc1ncsc1-c1ccc([C@H](C)NC(=O)[C@@H]2C[C@@H](O)CN2C(=O)[C@@H](NC(=O)CCCCCCCN(C)CCOC23C[C@@]4(C)C[C@@](C)(C2)C[C@@](Cn2ncc(-c5ccc(N6CCCc7c6nnc(Nc6nc8ccccc8s6)c7C)nc5C(=O)O)c2C)(C3)C4)C(C)(C)C)cc1 | 3 | 13
4 | Cc1ncsc1-c1ccc([C@H](C)NC(=O)[C@@H]2C[C@@H](O)CN2C(=O)[C@@H](NC(=O)CCCCCCN(C)CCOC23C[C@@]4(C)C[C@@](C)(C2)C[C@@](Cn2ncc(-c5ccc(N6CCCc7c6nnc(Nc6nc8ccccc8s6)c7C)nc5C(=O)O)c2C)(C3)C4)C(C)(C)C)cc1 | 3 | 9
5 | Cc1ncsc1-c1ccc([C@H](C)NC(=O)[C@@H]2C[C@@H](O)CN2C(=O)[C@@H](NC(=O)CCCCCCCCN(C)CCOC23C[C@@]4(C)C[C@@](C)(C2)C[C@@](Cn2ncc(-c5ccc(N6CCCc7c6nnc(Nc6nc8ccccc8s6)c7C)nc5C(=O)O)c2C)(C3)C4)C(C)(C)C)cc1 | 2 | 23
6 | Cc1ncsc1-c1ccc([C@H](C)NC(=O)[C@@H]2C[C@@H](O)CN2C(=O)[C@@H](NC(=O)CCCCCCCCCCCN(C)CCOC23C[C@@]4(C)C[C@@](C)(C2)C[C@@](Cn2ncc(-c5ccc(N6CCCc7c6nnc(Nc6nc8ccccc8s6)c7C)nc5C(=O)O)c2C)(C3)C4)C(C)(C)C)cc1 | 1 | 13
7 | Cc1ncsc1-c1ccc([C@H](C)NC(=O)[C@@H]2C[C@@H](O)CN2C(=O)[C@@H](NC(=O)CCCCCCCCCCCCCCN(C)CCOC23C[C@@]4(C)C[C@@](C)(C2)C[C@@](Cn2ncc(-c5ccc(N6CCCc7c6nnc(Nc6nc8ccccc8s6)c7C)nc5C(=O)O)c2C)(C3)C4)C(C)(C)C)cc1 | 1 | 2
